Earlier results as cited in US20060057183A1, “Indwelling stent” (priority 2003, published 2006).

Tested on: human vascular cells
Conditions: Mohacsi et al., J Heart Lung Transplant 1997

## C=CC[C@@H]1/C=C(\C)C[C@H](C)C[C@H](OC)[C@H]2O[C@@](O)(C(=O)C(=O)N3CCCC[C@H]3C(=O)O[C@H](/C(C)=C/[C@@H]3CC[C@@H](O)[C@H](OC)C3)[C@H](C)[C@@H](O)CC1=O)[C@H](C)C[C@@H]2OC [tacrolimus (FK506), Tacrolimus]
  antiproliferative effects on human vascular cells: antiproliferative effects
